Experimental data: patent publication US20120263649A1, “DETECTION OF MYCOBACTERIA” (priority 2009, published 2012)

Columns and labels:
Ag85B = Ag85B (Mycobacterium tuberculosis, UniProt P9WQP1); type: biochemical; conditions: ratio of peak height of mono-hexanoyl ester of labelled/derivatised Tre to peak height of labelled/derivatised Tre; 500 μM di-hexanoyl ester, 500 μM substrate, 100 nM enzyme, 1 mM TEA pH 7.2, 37° C; compound 1 (Tre) = 100
Ag85A = Ag85A (Mycobacterium tuberculosis, UniProt P9WQP3); type: biochemical; conditions: ratio of peak height of mono-hexanoyl ester of labelled/derivatised Tre to peak height of labelled/derivatised Tre; 500 μM di-hexanoyl ester, 500 μM substrate, 100 nM enzyme, 1 mM TEA pH 7.2, 37° C; compound 1 (Tre) = 100
Sequence of Ag85A (P9WQP3 44-338): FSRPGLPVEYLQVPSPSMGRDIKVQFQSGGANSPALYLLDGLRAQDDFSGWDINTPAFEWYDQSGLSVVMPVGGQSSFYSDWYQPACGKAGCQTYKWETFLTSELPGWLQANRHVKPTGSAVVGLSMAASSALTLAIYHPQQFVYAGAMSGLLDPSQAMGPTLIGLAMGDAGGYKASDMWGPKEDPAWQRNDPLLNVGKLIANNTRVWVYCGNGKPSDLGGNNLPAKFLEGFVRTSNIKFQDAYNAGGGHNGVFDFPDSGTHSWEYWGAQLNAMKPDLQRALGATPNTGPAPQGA

Ag85C = Ag85C (Mycobacterium tuberculosis, UniProt P9WQN9); type: biochemical; conditions: ratio of peak height of mono-hexanoyl ester of labelled/derivatised Tre to peak height of labelled/derivatised Tre; 500 μM di-hexanoyl ester, 500 μM substrate, 100 nM enzyme, 1 mM TEA pH 7.2, 37° C; compound 1 (Tre) = 100
Sequence of Ag85C (P9WQN9 46-340): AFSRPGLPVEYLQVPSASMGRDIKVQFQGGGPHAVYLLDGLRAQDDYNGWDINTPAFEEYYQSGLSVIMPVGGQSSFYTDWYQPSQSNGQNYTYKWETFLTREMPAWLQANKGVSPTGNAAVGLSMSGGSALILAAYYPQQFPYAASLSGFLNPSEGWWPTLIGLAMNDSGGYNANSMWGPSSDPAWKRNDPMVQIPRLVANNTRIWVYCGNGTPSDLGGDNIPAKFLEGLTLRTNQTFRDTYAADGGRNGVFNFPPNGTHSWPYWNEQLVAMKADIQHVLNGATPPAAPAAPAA

[1] = system: J774 Macrophages infected with H37Rv Mtb; test: FITC-Tre uptake into infected macrophages, confocal microscopy with anti-Mtb antibody; type: cell-based, murine; conditions: FIG. 7(j); antibody labelled with Alexa-594
Description: J774 Macrophages were grown to confluency on coverslips and then were infected with H37Rv Mtb (2-3 bacteria/macrophage). After 4 hours infection time, macrophages were washed to remove free bacteria and FITC-Tre was added in ethanol to desired concentrations (1 μM, 10 μM, 50 μM, 100 μM). Quantum dots (QDs) were treated in an analogous fashion and were added to a concentration of dots of (7 nm) with roughly 110 sugars/dot (1 μM effective sugar concentration) Uncoated QDs were utilized as a control. RFP expressing BCG was also treated in an identical fashion.
Cells were fixed at different timepoints utilizing the following procedure: Media was removed and cells were washed in PBS Buffer. Cells were then fixed in an aqueous solution of 5% formalin is phosphate buffered saline (PBS) for 15 minutes and then washed again using two 2-minute treatments with PBS (0.5 ml) for 2 min. […]
Images of stained cells were obtained by confocal microscopy (Leica SP2, Leica Microsystems, Exton, Pa.) using a 63× oil immersion objective NA 1.4. Multiple fields were sampled, and representative images were recorded. […] DAPI was first excited at 405 nm and emission spectrum was recorded (416 nm-482 nm) before the other fluorochromes were excited and emission spectrums recorded. Essential Sequential Z sections of stained cells were also recorded for generation of stacked images through cell. […]

Sequence of Ag85B (P9WQP1 41-325): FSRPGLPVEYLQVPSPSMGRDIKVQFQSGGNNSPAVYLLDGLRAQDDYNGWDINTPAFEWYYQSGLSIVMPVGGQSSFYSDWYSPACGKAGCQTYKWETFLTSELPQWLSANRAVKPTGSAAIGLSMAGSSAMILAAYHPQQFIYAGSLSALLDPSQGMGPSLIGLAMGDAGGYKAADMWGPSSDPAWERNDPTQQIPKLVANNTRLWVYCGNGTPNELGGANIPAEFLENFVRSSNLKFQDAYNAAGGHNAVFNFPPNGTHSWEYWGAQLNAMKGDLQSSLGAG

## OC[C@H]1O[C@H](O[C@H]2O[C@H](CO)[C@@H](O)[C@H](O)[C@H]2O)[C@H](O)[C@@H](O)[C@@H]1O [Compound 1, trehalose, reference compound]
Ag85B
  Relative substrate response towards transesterification, Ag85B: 100
Ag85A
  Relative substrate response towards transesterification, Ag85A: 100
Ag85C
  Relative substrate response towards transesterification, Ag85C: 100

## C[C@]1(O[C@H]2OC(CO)[C@@H](O)C(O)C2O)OC(CO)[C@@H](O)C(O)C1O (stereo partly drawn) [Compound 2, 1-Deoxy-α-D-gluco-hept-2-ulopyranosyl-(2→1)-α-D-glucopyranoside]
Ag85B
  Relative substrate response towards transesterification, Ag85B: 13
Ag85A
  Relative substrate response towards transesterification, Ag85A: 32
Ag85C
  Relative substrate response towards transesterification, Ag85C: 111

## C[C@]1(O[C@H]2OC(CO)[C@@H](O)C(O)C2F)OC(CO)[C@@H](O)C(O)C1O (stereo partly drawn) [Compound 3, 1-Deoxy-α-D-gluco-hept-2-ulopyranosyl-(2→1)-2-deoxy-2-fluoro-α-D-glucopyranoside]
Ag85B
  Relative substrate response towards transesterification, Ag85B: 1415
Ag85A
  Relative substrate response towards transesterification, Ag85A: 73
Ag85C
  Relative substrate response towards transesterification, Ag85C: 102

## C[C@]1(O[C@H]2OC(CO)[C@@H](O)C(O)C2O)OC(CO)[C@H](O)C(O)C1O (stereo partly drawn) [Compound 4, 1-Deoxy-α-D-galacto-hept-2-ulopyranosyl-(2→1)-α-D-glucopyranoside]
Ag85B
  Relative substrate response towards transesterification, Ag85B: 7
Ag85A
  Relative substrate response towards transesterification, Ag85A: 12
Ag85C
  Relative substrate response towards transesterification, Ag85C: 57

## C[C@]1(O[C@H]2OC(CO)[C@@H](O)C(O)C2F)OC(CO)[C@H](O)C(O)C1O (stereo partly drawn) [Compound 5, 1-Deoxy-α-D-galacto-hept-2-ulopyranosyl-(2→1)-2-deoxy-2-fluoro-α-D-glucopyranoside]
Ag85B
  Relative substrate response towards transesterification, Ag85B: 13
Ag85A
  Relative substrate response towards transesterification, Ag85A: 19
Ag85C
  Relative substrate response towards transesterification, Ag85C: 64

## C[C@]1(O[C@H]2OC(CO)[C@@H](O)C(F)C2O)OC(CO)[C@@H](O)C(O)C1O (stereo partly drawn) [Compound 6, 1-Deoxy-α-D-gluco-hept-2-ulopyranosyl-(2→1)-3-fluoro-3-deoxy-α-D-glucopyranoside]
Ag85B
  Relative substrate response towards transesterification, Ag85B: 8
Ag85A
  Relative substrate response towards transesterification, Ag85A: 7
Ag85C
  Relative substrate response towards transesterification, Ag85C: 76

## C[C@]1(O[C@H]2OC(CO)[C@@H](O)C(O)C2N)OC(CO)[C@@H](O)C(O)C1O (stereo partly drawn) [Compound 7, 1-Deoxy-α-D-gluco-hept-2-ulopyranosyl-(2→1)-2-amino-2-deoxy-α-D-glucopyranoside]
Ag85B
  Relative substrate response towards transesterification, Ag85B: 56
Ag85A
  Relative substrate response towards transesterification, Ag85A: 47
Ag85C
  Relative substrate response towards transesterification, Ag85C: 91

## C[C@]1(O[C@H]2OC(CO)[C@@H](O)C(O)C2NC(=S)Nc2ccc(-c3c4ccc(=O)cc-4oc4cc(O)ccc34)c(C(=O)O)c2)OC(CO)[C@@H](O)C(O)C1O (stereo partly drawn) [Compound 9, 1-Deoxy-α-D-gluco-hept-2-ulopyranosyl-(2→1)-2-N-fluorescein-2-deoxy-α-D-glucopyranoside]
Ag85B
  Relative substrate response towards transesterification, Ag85B: 38
Ag85A
  Relative substrate response towards transesterification, Ag85A: 229
[1]
  Colocalization of probe with anti-Mtb antibody signal in infected macrophages: colocalization of FITC-Tre and antibody
Ag85C
  Relative substrate response towards transesterification, Ag85C: 44

## OCC1O[C@H](O[C@@H]2CC(O)[C@H](O)C(CO)O2)CC(O)[C@@H]1O (stereo partly drawn) [Compound 10, 2′-Deoxy-α-D-arabino-hexopyranosyl-(1→1)-2-deoxy-α-D-arabino-hexopyranoside]
Ag85B
  Relative substrate response towards transesterification, Ag85B: 16
Ag85A
  Relative substrate response towards transesterification, Ag85A: 50
Ag85C
  Relative substrate response towards transesterification, Ag85C: 129

## OCC1O[C@H](O[C@@H]2CC(O)[C@@H](O)C(CO)O2)CC(O)[C@H]1O (stereo partly drawn) [Compound 11, 2′-Deoxy-α-D-lyxo-hexopyranosyl-(1→1)-2-deoxy-α-D-lyxo-hexopyranoside]
Ag85B
  Relative substrate response towards transesterification, Ag85B: 4
Ag85A
  Relative substrate response towards transesterification, Ag85A: 1
Ag85C
  Relative substrate response towards transesterification, Ag85C: 1

## OCC1O[C@H](O[C@H]2OC(CO)[C@@H](O)C(O)C2I)C(I)C(O)[C@@H]1O (stereo partly drawn) [Compound 12, 2′-Deoxy-2′-iodo-α-D-mannopyranosyl-(1→1)-2-deoxy-2-iodo-α-D-mannopyranoside]
Ag85B
  Relative substrate response towards transesterification, Ag85B: 54
Ag85A
  Relative substrate response towards transesterification, Ag85A: 148
Ag85C
  Relative substrate response towards transesterification, Ag85C: 166

## OCC1O[C@H](O[C@H]2OC(CO)[C@@H](O)C(O)C2F)C(F)C(O)[C@@H]1O (stereo partly drawn) [Compound 13, 2′-Deoxy-2′-fluoro-α-D-mannopyranosyl-(1→1)-2-deoxy-2-fluoro-α-D-mannopyranoside]
Ag85B
  Relative substrate response towards transesterification, Ag85B: 24
Ag85A
  Relative substrate response towards transesterification, Ag85A: 66
Ag85C
  Relative substrate response towards transesterification, Ag85C: 98

## OCC1O[C@H](O[C@@H]2OC(CO)[C@@H](O)C(O)C2F)C(F)C(O)[C@@H]1O (stereo partly drawn) [Compound 14, 2′-Deoxy-2′-fluoro-α-D-mannopyranosyl-(1→1)-2-deoxy-2-fluoro-β-D-mannopyranoside]
Ag85B
  Relative substrate response towards transesterification, Ag85B: 35
Ag85A
  Relative substrate response towards transesterification, Ag85A: 7
Ag85C
  Relative substrate response towards transesterification, Ag85C: 82

## O=P(O)(O)OCC1O[C@H](O[C@H]2OC(CO)[C@@H](O)C(O)C2O)C(O)C(O)[C@@H]1O (stereo partly shown) [Compound 15, Trehalose-6-phosphate]
Ag85B
  Relative substrate response towards transesterification, Ag85B: 4
Ag85A
  Relative substrate response towards transesterification, Ag85A: 6
Ag85C
  Relative substrate response towards transesterification, Ag85C: 28

## COP(=O)(O)OCC1O[C@H](O[C@H]2OC(CO)[C@@H](O)C(O)C2O)C(O)C(O)[C@@H]1O (stereo partly drawn) [Compound 16, 6-O-monomethoxyphosphoryl-D-trehalose]
Ag85B
  Relative substrate response towards transesterification, Ag85B: 24
Ag85A
  Relative substrate response towards transesterification, Ag85A: 37
Ag85C
  Relative substrate response towards transesterification, Ag85C: 113

## O=P1(O)OCC2O[C@H](O[C@H]3OC(CO)[C@@H](O)C(O)C3O)C(O)C(O)[C@@H]2O1 (stereo partly drawn) [Compound 17, 4,6-(monohydrogen)phosphoryl-D-trehalose]
Ag85B
  Relative substrate response towards transesterification, Ag85B: 17
Ag85A
  Relative substrate response towards transesterification, Ag85A: 18
Ag85C
  Relative substrate response towards transesterification, Ag85C: 94

## [N-]=[N+]=NCC1O[C@H](O[C@H]2OC(CO)[C@@H](O)C(O)C2O)C(O)C(O)[C@@H]1O (stereo partly drawn) [Compound 18, 6-Azido-D-trehalose]
Ag85B
  Relative substrate response towards transesterification, Ag85B: 13
Ag85A
  Relative substrate response towards transesterification, Ag85A: 37
Ag85C
  Relative substrate response towards transesterification, Ag85C: 64

## OCC1O[C@H](O[C@H]2OC(CBr)[C@@H](O)C(O)C2O)C(O)C(O)[C@@H]1O (stereo partly drawn) [Compound 19, 6-deoxy-6-bromo-α-D-glucopyranosyl-α-D-glucopyranoside]
Ag85B
  Relative substrate response towards transesterification, Ag85B: 92
Ag85A
  Relative substrate response towards transesterification, Ag85A: 102
Ag85C
  Relative substrate response towards transesterification, Ag85C: 99

## OCC1O[C@H](O[C@H]2OC(CF)[C@@H](O)C(O)C2O)C(O)C(O)[C@@H]1O (stereo partly drawn) [Compound 20, 6-deoxy-6-fluoro-α-D-glucopyranosyl-α-D-glucopyranoside]
Ag85B
  Relative substrate response towards transesterification, Ag85B: 412
Ag85A
  Relative substrate response towards transesterification, Ag85A: 149
Ag85C
  Relative substrate response towards transesterification, Ag85C: 91

## OC[C@H]1O[C@H](O[C@H]2O[C@H](CO)[C@H](F)[C@H](O)[C@H]2O)[C@H](O)[C@@H](O)[C@@H]1O [Compound 21, 4-deoxy-4-fluoro-α-D-galactopyranosyl α-D-glucopyranoside]
Ag85B
  Relative substrate response towards transesterification, Ag85B: 412
Ag85A
  Relative substrate response towards transesterification, Ag85A: 229
Ag85C
  Relative substrate response towards transesterification, Ag85C: 91
